As usually defined, the IC50 is the midpoint of a concentration-inhibition curve.

In this assay the target is T1, PARP1 (Homo sapiens, UniProt P09874).
T1 construct: purchased BPS Bioscience
T1 sequence (P09874 whole entry): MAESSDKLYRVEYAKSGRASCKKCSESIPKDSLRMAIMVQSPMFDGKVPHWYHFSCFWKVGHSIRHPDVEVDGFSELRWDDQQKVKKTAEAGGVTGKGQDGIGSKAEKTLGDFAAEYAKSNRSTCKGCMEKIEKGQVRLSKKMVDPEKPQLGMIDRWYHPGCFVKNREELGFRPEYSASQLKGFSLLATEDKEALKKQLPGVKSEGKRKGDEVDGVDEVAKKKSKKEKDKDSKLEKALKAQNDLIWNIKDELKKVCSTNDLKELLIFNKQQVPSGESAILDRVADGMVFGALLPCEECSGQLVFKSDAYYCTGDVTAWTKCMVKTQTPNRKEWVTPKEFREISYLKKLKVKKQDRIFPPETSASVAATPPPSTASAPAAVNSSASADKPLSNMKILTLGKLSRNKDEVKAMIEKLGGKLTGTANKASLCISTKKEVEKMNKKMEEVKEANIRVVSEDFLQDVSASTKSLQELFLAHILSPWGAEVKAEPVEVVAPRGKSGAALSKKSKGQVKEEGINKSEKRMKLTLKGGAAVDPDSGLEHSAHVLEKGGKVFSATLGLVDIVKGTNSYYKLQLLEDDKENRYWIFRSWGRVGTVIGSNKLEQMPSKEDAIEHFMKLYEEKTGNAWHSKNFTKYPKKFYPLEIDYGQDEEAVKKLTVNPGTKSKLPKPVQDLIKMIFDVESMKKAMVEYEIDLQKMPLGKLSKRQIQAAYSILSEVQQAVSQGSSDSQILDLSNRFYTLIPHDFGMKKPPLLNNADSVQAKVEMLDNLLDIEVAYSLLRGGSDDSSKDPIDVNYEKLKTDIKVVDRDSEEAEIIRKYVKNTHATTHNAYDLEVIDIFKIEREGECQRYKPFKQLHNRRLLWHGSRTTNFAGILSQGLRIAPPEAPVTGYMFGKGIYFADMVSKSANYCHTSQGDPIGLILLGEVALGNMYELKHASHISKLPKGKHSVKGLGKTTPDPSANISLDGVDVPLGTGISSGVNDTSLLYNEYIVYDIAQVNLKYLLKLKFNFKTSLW
The assay is described as follows: PARP1 Biochemical Assay (BPS Bioscience kit, chemiluminescence). The following applies: histone-coated plate, biotinilated NAD+, 25° C. for 60 min, luminescence, read-out: PARP 1 inhibition IC50. How it is done: The assay was performed using BPS Bioscience kit. The 96-well strip plate was coated with 50 μl of histone mixture and incubated at 4° C. overnight. Next day the wells were blocked by adding 100 μl of blocking buffer. The plate was washed and 25 μl of appropriate concentration of PARP1 (25-75 ng/well) was added in all the Test and Positive control wells. In Negative control wells enzyme was replaced with 25 μl of water. To it 5 μl each of 10×PARP assay buffer and activated DNA was added in all the wells (Test, Positive and Negative control wells). 10× concentration of test compounds were prepared and 5 μl test compounds were added respective wells. Reaction volume was made up to 45 μl by adding water to all the wells. Finally, 5 μl of 10×PARP assay mixture containing biotinilated NAD^+ was added in each well and the plate was incubated at ambient temperature (25° C.) for 60 min. After washing the plate 50 μl of Streptavidin-HRP was added in each well and incubated the plate at RT for 30 min. The plate was washed and the luminescence was read in PHERAStar plate reader after adding 100 μl of chemiluminescent substrate.
PARP inhibition was calculated using the following formula: % PARP inhibition=100−[(RLU test compound treated sample−RLU negative control)/(RLU Positive control−RLU negative control)×100]
IC50 values were calculated by plotting % inhibition against the respective concentrations of test compounds using GraphPad Prism 5.
Consider `O=c1[nH]c(C2=C[C@H](N3CCN(c4ccc(Cl)cc4)CC3)CC2)nc2c1CC1(CC2)CC1` [Compound 37, (R)-2′-(3-(4-(4-chlorophenyl)piperazin-1-yl)cyclopent-1-en-1-yl)-7′,8′-dihydro-3′H-spiro[cyclopropane-1,6′-quinazolin]-4′(5′H)-one], for which the IC50 lay in the range of 1 to 500 nM. Then `O=c1[nH]c(C2=C[C@H](N3CCN(c4ccc(-c5ccccc5)cc4)CC3)CC2)nc2c1CC1(CC2)CC1` [Compound 158, (R)-2′-(3-(4-([1,1′-biphenyl]-4-yl)piperazin-1-yl)cyclopent-1-en-1-yl)-7′,8′-dihydro-3′H-spiro[cyclopropane-1,6′-quinazolin]-4′(5′H)-one], with 501 to 5000 nM. Turning to `O=c1[nH]c(C2=C[C@@H](N3CCN(c4ccc(Cl)cc4)CC3)CC2)nc2c1CC1(CC2)CC1` [Compound 38, (S)-2′-(3-(4-(4-chlorophenyl)piperazin-1-yl)cyclopent-1-en-1-yl)-7′,8′-dihydro-3′H-spiro[cyclopropane-1,6′-quinazolin]-4′(5′H)-one], the IC50 is 1 to 500 nM. Then `O=C1CN(c2ccc(F)cc2)CCN1CCCc1nc2c(c(=O)[nH]1)CC1(CC2)CC1` [Compound 33, 2′-(3-(4-(4-fluorophenyl)-2-oxopiperazin-1-yl)propyl)-7′,8′-dihydro-3′H-spiro[cyclopropane-1,6′-quinazolin]-4′(5′H)-one], with 5000 to 500000 nM; and `O=c1[nH]c(C2=C[C@H](N3CCN(c4cccc(Cl)c4F)CC3)CC2)nc2c1CC1(CC2)CC1` [Compound 99, (R)-2′-(3-(4-(3-chloro-2-fluorophenyl)piperazin-1-yl)cyclopent-1-en-1-yl)-7′,8′-dihydro-3′H-spiro[cyclopropane-1,6′-quinazolin]-4′(5′H)-one], with 501 to 5000 nM. Then `CNC(=O)c1ccc(C2=CCN([C@H]3C=C(c4nc5c(c(=O)[nH]4)CC4(CC5)CC4)CC3)CC2)cc1` [Compound 72, (R)—N-methyl-4-(1-(3-(4′-oxo-4′,5′,7′,8′-tetrahydro-3′H-spiro[cyclopropane-1,6′-quinazolin]-2′-yl)cyclopent-2-en-1-yl)-1,2,3,6-tetrahydropyridin-4-yl)benzamide], with 1 to 500 nM; and `O=c1[nH]c(CCCN2CCN(c3ccc(Cl)cc3)CC2)nc2c1C1CCC2C1` (centres unmarked) [Compound 36, 2-(3-(4-(4-chlorophenyl)piperazin-1-yl)propyl)-5,6,7,8-tetrahydro-5,8-methanoquinazolin-4(3H)-one], with 5000 to 500000 nM; and `O=c1[nH]c(C2=C[C@@H](N3CC=C(c4ccc(Cl)cc4)CC3)CC2)nc2c1CC1(CC2)CC1` [Compound 47, (S)-2′-(3-(4-(4-chlorophenyl)-5,6-dihydropyridin-1(2H)-yl)cyclopent-1-en-1-yl)-7′,8′-dihydro-3′H-spiro[cyclopropane-1,6′-quinazolin]-4′(5′H)-one], with 1 to 500 nM. Then `CNC(=O)c1ccc(N2CCN([C@H]3C=C(c4nc5c(c(=O)[nH]4)CC4(CC5)CC4)CC3)CC2)c(C)c1` [Compound 97, (R)—N, 3-dimethyl-4-(4-(3-(4′-oxo-4′,5′,7′,8′-tetrahydro-3′H-spiro[cyclopropane-1,6′-quinazolin]-2′-yl)cyclopent-2-en-1-yl)piperazin-1-yl)benzamide], with 1 to 500 nM; and `O=c1[nH]c(C2=C[C@H](N3CCN(c4ccccc4)CC3)CC2)nc2c1CC1(CC2)CC1` [Compound 117, (R)-2′-(3-(4-phenylpiperazin-1-yl)cyclopent-1-en-1-yl)-7′,8′-dihydro-3′H-spiro[cyclopropane-1,6′-quinazolin]-4′(5′H)-one], with 1 to 500 nM; and `O=c1[nH]c([C@H]2CC[C@H](N3CCN(c4cccc(F)c4)CC3)C2)nc2c1CC1(CC2)CC1` [Compound 154, 2′-((1S,3S)-3-(4-(3-fluorophenyl)piperazin-1-yl)cyclopentyl)-7′,8′-dihydro-3′H-spiro[cyclopropane-1,6′-quinazolin]-4′(5′H)-one], with 1 to 500 nM. Regarding `O=c1[nH]c([C@@H]2CC[C@@H](N3CCN(c4cccc(F)c4)CC3)C2)nc2c1CC1(CC2)CC1` [Compound 156, 2′-((1R,3R)-3-(4-(3-fluorophenyl)piperazin-1-yl)cyclopentyl)-7′,8′-dihydro-3′H-spiro[cyclopropane-1,6′-quinazolin]-4′(5′H)-one], the half-inhibitory concentration (IC50) was in the range of 5000 to 500000 nM. Then `O=c1[nH]c(CCCN2CCN(c3cccc(C(F)(F)F)c3)CC2)nc2c1CC1(CC2)CC1` [Compound 22, 2′-(3-(4-(3-(trifluoromethyl)phenyl)piperazin-1-yl)propyl)-7′,8′-dihydro-3′H-spiro[cyclopropane-1,6′-quinazolin]-4′(5′H)-one], with 5000 to 500000 nM; and `O=c1[nH]c(C2=C[C@H](N3CCN(c4cccc(F)c4)CC3)CC2)nc2c1CC1(CC2)CC1` [Compound 78, (R)-2′-(3-(4-(3-fluorophenyl)piperazin-1-yl)cyclopent-1-en-1-yl)-7′,8′-dihydro-3′H-spiro[cyclopropane-1,6′-quinazolin]-4′(5′H)-one], with 1 to 500 nM. Then `O=c1[nH]c(CCCN2CCN(c3ccccc3F)CC2)nc2c1CC1(CC2)CC1` [Compound 28, 2′-(3-(4-(2-fluorophenyl)piperazin-1-yl)propyl)-7′,8′-dihydro-3′H-spiro[cyclopropane-1,6′-quinazolin]-4′(5′H)-one], with 1 to 500 nM; and `Cc1cccc(N2CCN([C@H]3C=C(c4nc5c(c(=O)[nH]4)CC4(CC5)CC4)CC3)CC2)c1C` [Compound 140, (R)-2′-(3-(4-(2,3-dimethylphenyl)piperazin-1-yl)cyclopent-1-en-1-yl)-7′,8′-dihydro-3′H-spiro[cyclopropane-1,6′-quinazolin]-4′(5′H)-one], with 501 to 5000 nM.

Turning to `CNC(=O)c1cnc(N2CCN([C@H]3C=C(c4nc5c(c(=O)[nH]4)CC4(CC5)CC4)CC3)CC2)s1` [Compound 104, (R)—N-methyl-2-(4-(3-(4′-oxo-4′,5′,7′,8′-tetrahydro-3′H-spiro[cyclopropane-1,6′-quinazolin]-2′-yl)cyclopent-2-en-1-yl)piperazin-1-yl)thiazole-5-carboxamide], the half-inhibitory concentration (IC50) lay in the range of 1 to 500 nM.

`CC1CN(c2ccc(F)cc2)CC(C)N1CCCc1nc2c(c(=O)[nH]1)CC1(CC2)CC1` (centres unmarked) [Compound 26, 2′-(3-(4-(4-fluorophenyl)-2,6-dimethylpiperazin-1-yl)propyl)-7′,8′-dihydro-3′H-spiro[cyclopropane-1,6′-quinazolin]-4′(5′H)-one]: the concentration for half-maximal inhibition (IC50) was 5000 to 500000 nM. Then `CNC(=O)c1ccc(N2CCN([C@H]3C=C(c4nc5c(c(=O)[nH]4)CC4(CC5)CC4)CC3)CC2)cc1` [Compound 54, (R)—N-methyl-4-(4-(3-(4′-oxo-4′,5′,7′,8′-tetrahydro-3′H-spiro[cyclopropane-1,6′-quinazolin]-2′-yl)cyclopent-2-en-1-yl)piperazin-1-yl)benzamide], with 1 to 500 nM; and `O=c1[nH]c(CCCN2CCN(c3ccc(F)cc3)CC2)nc2c1C1CCC2C1` (centres unmarked) [Compound 35, 2-(3-(4-(4-fluorophenyl)piperazin-1-yl)propyl)-5,6,7,8-tetrahydro-5,8-methanoquinazolin-4(3H)-one], with 5000 to 500000 nM. Then `CN(C)C(=O)c1ccc(N2CCN([C@H]3C=C(c4nc5c(c(=O)[nH]4)CC4(CC5)CC4)CC3)CC2)cc1` [Compound 69, (R)—N,N-dimethyl-4-(4-(3-(4′-oxo-4′,5′,7′,8′-tetrahydro-3′H-spiro[cyclopropane-1,6′-quinazolin]-2′-yl)cyclopent-2-en-1-yl)piperazin-1-yl)benzamide], with 5000 to 500000 nM.

For the molecule `CCc1cnc(N2CCN([C@H]3C=C(c4nc5c(c(=O)[nH]4)CC4(CC5)CC4)CC3)CC2)nc1` [Compound 135, (R)-2′-(3-(4-(5-ethylpyrimidin-2-yl)piperazin-1-yl)cyclopent-1-en-1-yl)-7′,8′-dihydro-3′H-spiro[cyclopropane-1,6′-quinazolin]-4′(5′H)-one], the concentration for half-maximal inhibition (IC50) lay within 5000 to 500000 nM. Then `Cc1ccc(C)c(N2CCN([C@H]3C=C(c4nc5c(c(=O)[nH]4)CC4(CC5)CC4)CC3)CC2)c1` [Compound 144, (R)-2′-(3-(4-(2,5-dimethylphenyl)piperazin-1-yl)cyclopent-1-en-1-yl)-7′,8′-dihydro-3′H-spiro[cyclopropane-1,6′-quinazolin]-4′(5′H)-one], with 501 to 5000 nM.

Turning to `Cc1ccc(N2CCN([C@H]3C=C(c4nc5c(c(=O)[nH]4)CC4(CC5)CC4)CC3)CC2)c(Cl)c1` [Compound 92, (R)-2′-(3-(4-(2-chloro-4-methylphenyl)piperazin-1-yl)cyclopent-1-en-1-yl)-7′,8′-dihydro-3′H-spiro[cyclopropane-1,6′-quinazolin]-4′(5′H)-one], the IC50 fell in the range of 1 to 500 nM.

Consider `O=c1[nH]c(C2=C[C@H](N3CCN(c4ccc(F)cc4)CC3)CC2)nc2c1CCCC21CC1` [Compound 48, (R)-2′-(3-(4-(4-fluorophenyl)piperazin-1-yl)cyclopent-1-en-1-yl)-6′,7′-dihydro-3′H-spiro[cyclopropane-1,8′-quinazolin]-4′(5′H)-one], for which the half-maximal inhibitory concentration (IC50) lay in the range of 1 to 500 nM. Then `O=c1[nH]c(C2=C[C@H](N3CCN(c4ccc(Cl)cc4)CC3)CC2)nc2c1CCCC21CC1` [Compound 41, (R)-2′-(3-(4-(4-chlorophenyl)piperazin-1-yl)cyclopent-1-en-1-yl)-6′,7′-dihydro-3′H-spiro[cyclopropane-1,8′-quinazolin]-4′(5′H)-one], with 5000 to 500000 nM.

For the origin of these results see patent publication US9359367B2, “Tetrahydroquinazolinone derivatives as PARP inhibitors” (Lupin Limited, priority 2012, dated 2016).
